# The supplement of paper PMC11061612
# Experiments:
# Experiment in all cases: Bliss excess, mean over the matrix (fraction); higher = more synergy
# [1] = test system: CAPAN-1 (Pancreatic Carcinoma)
# How it was run: (§1)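 Bliss excess equals the observed combination effect minus the expected value EA + EB − EA·EB, where EA and EB are the effects of each agent alone. Combination Emax is the second-highest inhibition within the matrix. Inhibition was scaled from CellTiter-Glo 2.0 luminescence, with 0 set by vehicle wells and 1 by blank wells, after 72 hours of two-drug dosing of cells plated in 1536-well plates.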
# [2] = test system: NCI-H28 (Mesothelioma)
# How it was run: as §1
# [3] = test system: 8305C (Thyroid Gland Carcinoma)
# How it was run: as §1
# [4] = test system: Hs-633T (Other Solid Carcinomas)
# How it was run: as §1
# [5] = test system: HDLM-2 (Hodgkin's Lymphoma)
# How it was run: as §1
# [6] = test system: LU-139 (Small Cell Lung Carcinoma)
# How it was run: as §1
# [7] = test system: NB14 (Neuroblastoma)
# How it was run: as §1
# [8] = test system: PCI-30 (Head and Neck Carcinoma)
# How it was run: as §1
# [9] = test system: EN (Endometrial Carcinoma)
# How it was run: as §1
# [10] = test system: NCI-H69 (Small Cell Lung Carcinoma)
# How it was run: as §1
# [11] = test system: RT-112 (Bladder Carcinoma)
# How it was run: as §1
# [12] = test system: HARA (Squamous Cell Lung Carcinoma)
# How it was run: as §1
# [13] = test system: SUP-T1 (T-Lymphoblastic Leukemia)
# How it was run: as §1
# [14] = test system: SK-OV-3 (Ovarian Carcinoma)
# How it was run: as §1
# [15] = test system: OC-314 (Ovarian Carcinoma)
# How it was run: as §1
# [16] = test system: RKO (Colorectal Carcinoma)
# How it was run: as §1
# [17] = test system: SW1116 (Colorectal Carcinoma)
# How it was run: as §1
# [18] = test system: NCI-H2461 (Mesothelioma)
# How it was run: as §1
# [19] = test system: HMV-II (Melanoma)
# How it was run: as §1
# [20] = test system: HO-1-u-1 (Oral Cavity Carcinoma)
# How it was run: as §1
Structure (SMILES),Bliss excess [1],Bliss excess [2],Bliss excess [3],Bliss excess [4],Bliss excess [5],Bliss excess [6],Bliss excess [7],Bliss excess [8],Bliss excess [9],Bliss excess [10],Bliss excess [11],Bliss excess [12],Bliss excess [13],Bliss excess [14],Bliss excess [15],Bliss excess [16],Bliss excess [17],Bliss excess [18],Bliss excess [19],Bliss excess [20]
"C[C@@H]1COCCN1c1cc(C2([S@](C)(=N)=O)CC2)nc(-c2ccnc3[nH]ccc23)n1 [AZD6738] + Nc1ccn([C@@H]2O[C@H](CO)[C@@H](O)C2(F)F)c(=O)n1 [Gemcitabine] (first compound max 10 µM, 7x7, partner max 0.3 µM)",-0.0254,0.0086,0.0252,0.0444,0.0754,0.0146,0.04,0.0539,0.0613,0.035,0.147,0.0343,0.0041,0.0331,0.115,-0.0088,0.0575,-0.0436,-0.0112,0.061
"O=C(c1cc(Cc2n[nH]c(=O)c3ccccc23)ccc1F)N1CCN(C(=O)C2CC2)CC1 [Olaparib] + Cc1c2c(nn1C)CSCc1cc(n(C)n1)CSc1cc(c3ccccc3c1)OCCCc1c(C(=O)O)n(C)c3c-2c(Cl)ccc13 [AZD5991] (first compound max 10 µM, 7x7, partner max 1 µM)",-0.0392,-0.0349,-0.0391,-0.0037,-0.0194,-0.0263,-0.0183,-0.048,-0.016,0.0008,0.0048,-0.0358,-0.0286,-0.06,-0.0142,-0.0205,-0.0503,-0.0502,-0.0561,-0.0224
"CN(CCO)CC[C@H](CSc1ccccc1)Nc1ccc(S(=O)(=O)NC(=O)c2ccc(N3CCC([C@@H](O)c4ccccc4-c4ccc(Cl)cc4)CC3)cc2)cc1S(=O)(=O)C(F)(F)F [AZD4320] + Nc1ccn([C@@H]2O[C@H](CO)[C@@H](O)C2(F)F)c(=O)n1 [Gemcitabine] (first compound max 1 µM, 7x7, partner max 0.3 µM)",0.0166,0.0018,0.072,0.0434,0.0204,0.0388,0.0314,-0.0272,-0.0382,-0.0064,-0.0057,-0.0498,0.0225,-0.0695,0.0434,-0.0195,-0.0292,0.0285,-0.0109,0.0383
"C[C@@H](Oc1cc(-c2cnn(C3CCNCC3)c2)cnc1N)c1c(Cl)ccc(F)c1Cl [Crizotinib] + Cn1cnc2c(F)c(Nc3ccc(Br)cc3Cl)c(C(=O)NOCCO)cc21 [Selumetinib] (first compound max 10 µM, 7x7, partner max 10 µM)",-0.046,-0.0004,0.0017,0.0381,-0.0399,-0.0615,0.0218,-0.0206,-0.0542,-0.0607,-0.043,-0.0366,-0.0501,-0.0479,-0.0354,0.122,-0.0239,-0.0376,-0.0273,-0.0779
"Cc1cc2ncnn2cc1Nc1ncc2c(n1)n(C1CCOCC1)c(=O)n2C [AZD7648] + COc1cc([C@@H]2c3cc4c(cc3[C@@H](O[C@@H]3O[C@@H]5CO[C@@H](C)O[C@H]5[C@H](O)[C@H]3O)[C@H]3COC(=O)[C@H]23)OCO4)cc(OC)c1O [Etoposide] (first compound max 10 µM, 7x7, partner max 10 µM)",-0.0034,0.0548,-0.0413,0.174,-0.0015,0.101,0.0704,0.0768,0.0565,0.0783,0.17,0.105,0.07,-0.0497,0.152,0.135,-0.0028,0.0136,0.0864,0.11
